Assay results as given in the NIST ThermoML archive (doi:10.1016/j.tca.2004.11.022).
Numbers after ± are expanded uncertainties.

Columns and labels:
[1] = 101.33 kPa, Liquid; for mass density: Vibrating tube method; for speed of sound: Pulse-echo method
[2] = molar heat capacity at constant pressure; settings: 101.33 kPa, Liquid, Small sample (50 mg) DSC

Row | mass density ([1]; 288.15 K) [kg/m3] | mass density ([1]; 293.15 K) [kg/m3] | speed of sound ([1]; 298.15 K) [m/s] | mass density ([1]; 298.15 K) [kg/m3] | mass density ([1]; 308.15 K) [kg/m3] | molar heat capacity at constant pressure ([2]; 288.15 K) [J/K/mol] | molar heat capacity at constant pressure ([2]; 298.15 K) [J/K/mol] | molar heat capacity at constant pressure ([2]; 308.15 K) [J/K/mol] | SMILES
1 | 1076.56 ± 0.55 | 1070.02 ± 0.55 | 1197.1 ± 1.6 | 1063.42 ± 0.55 | 1050.11 ± 0.54 | 164.03 ± 3.3 | 165.02 ± 3.3 | 166.3 ± 3.3 | COC(=O)OC [dimethyl carbonate]
2 | 721.66 ± 0.41 | 717.75 ± 0.41 | 1206.3 ± 1.6 | 713.85 ± 0.41 | 706.05 ± 0.41 | 280.13 ± 5.6 | 284.23 ± 5.7 | 288.8 ± 5.8 | CCCCCCCCC [nonane]
3 | 706.54 ± 0.26 | 702.53 ± 0.26 | 1172.1 ± 1.3 | 698.5 ± 0.27 | 690.34 ± 0.27 | 250.12 ± 5 | 253.94 ± 5.1 | 258.03 ± 5.2 | CCCCCCCC [octane]
